Laboratory results reported in US20150087586A1, “PEGYLATED C-PEPTIDE” (Cebix, Inc., priority 2012, published 2015).

Experiment: Pharmacokinetic study of unmodified C-peptide in beagle dogs, single S.C. dose, plasma ELISA
Type: in vivo
Settings: single S.C. dose 0.5 mg/kg
Description: A pharmacokinetic (PK) study was conducted to determine the C-peptide PK profile with unmodified C-peptide in beagle dogs.
Two male and one female dog received S.C. the unmodified synthetic human C-peptide (0.5 mg/kg; 0.025 mL/kg) formulated in phosphate buffered saline (20 mg/mL). Dogs were bled by venipuncture and blood samples were collected at predetermined time points over 14 days. Plasma samples were obtained after centrifugation of the blood (3,000 rpm for 10 minutes) and stored at −80° C. until analysis. A CRO with Good Laboratory Practice (GLP) capabilities (MicroConstants, Inc.; San Diego, Calif.) performed the bioanalytical work. […] Results were expressed as C-peptide concentrations. For the PK analysis, the below quantitation level (BQL) was treated as zero and nominal time points were used for all calculations. PK parameters were determined by standard model independent methods based on the individual plasma concentration-time data for each animal using model 200 in WinNonlin Professional 5.2.1 (Pharsight Corp., Mountain View, Calif.).

## CC(C)C[C@H](NC(=O)[C@H](C)NC(=O)[C@H](CC(C)C)NC(=O)[C@@H]1CCCN1C(=O)[C@H](CCC(N)=O)NC(=O)[C@H](CC(C)C)NC(=O)[C@H](CO)NC(=O)CNC(=O)[C@H](C)NC(=O)CNC(=O)[C@@H]1CCCN1C(=O)CNC(=O)CNC(=O)CNC(=O)[C@H](CC(C)C)NC(=O)[C@H](CCC(=O)O)NC(=O)[C@@H](NC(=O)[C@H](CCC(N)=O)NC(=O)CNC(=O)[C@@H](NC(=O)[C@H](CCC(N)=O)NC(=O)[C@H](CC(C)C)NC(=O)[C@H](CC(=O)O)NC(=O)[C@H](CCC(=O)O)NC(=O)[C@H](C)NC(=O)[C@@H](N)CCC(=O)O)C(C)C)C(C)C)C(=O)N[C@@H](CCC(=O)O)C(=O)NCC(=O)N[C@@H](CO)C(=O)N[C@@H](CC(C)C)C(=O)N[C@@H](CCC(N)=O)C(=O)O [CP-AQ]
14 days observation
  tolerability (clinical abnormalities): well tolerated
plasma
  time until circulating levels of C-peptide were below quantitation level (BQL): BQL within half a day
